The values below come from BindingDB's records for doi:10.1021/jm020046y (National Institute of Diabetes, 2002).

Experiment [1] deals with P2X purinoceptor 3 (Rattus norvegicus) (UniProt P49654). Put plainly: The compound was evaluated for antagonist activity against recombinant rat P2X purinoceptor 3 (P2X3) at 3 uM, expressed in Xenopus oocytes.
For experiment [2], the target named is P2Y purinoceptor 1 (Meleagris gallopavo, UniProt P49652). Put plainly: Evaluated for agonist activity against phospholipase C coupled P2Y purinoceptor 1 (P2Y1) of turkey erythrocytes.
Sequence of P2Y purinoceptor 1 (P49652 whole entry): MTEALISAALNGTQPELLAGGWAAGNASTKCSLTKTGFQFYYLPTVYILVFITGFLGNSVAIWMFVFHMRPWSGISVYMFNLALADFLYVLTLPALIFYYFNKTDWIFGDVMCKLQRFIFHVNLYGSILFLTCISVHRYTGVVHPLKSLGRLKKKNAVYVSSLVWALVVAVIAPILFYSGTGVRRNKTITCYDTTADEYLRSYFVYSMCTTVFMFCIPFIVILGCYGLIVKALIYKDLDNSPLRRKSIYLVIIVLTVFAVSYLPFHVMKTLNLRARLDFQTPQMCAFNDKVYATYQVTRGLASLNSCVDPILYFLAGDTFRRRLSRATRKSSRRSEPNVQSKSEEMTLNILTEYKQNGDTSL
For experiment [3], the target named is T1, P2X purinoceptor 7 (Rattus norvegicus, UniProt Q64663).
T1 sequence (Q64663 whole entry): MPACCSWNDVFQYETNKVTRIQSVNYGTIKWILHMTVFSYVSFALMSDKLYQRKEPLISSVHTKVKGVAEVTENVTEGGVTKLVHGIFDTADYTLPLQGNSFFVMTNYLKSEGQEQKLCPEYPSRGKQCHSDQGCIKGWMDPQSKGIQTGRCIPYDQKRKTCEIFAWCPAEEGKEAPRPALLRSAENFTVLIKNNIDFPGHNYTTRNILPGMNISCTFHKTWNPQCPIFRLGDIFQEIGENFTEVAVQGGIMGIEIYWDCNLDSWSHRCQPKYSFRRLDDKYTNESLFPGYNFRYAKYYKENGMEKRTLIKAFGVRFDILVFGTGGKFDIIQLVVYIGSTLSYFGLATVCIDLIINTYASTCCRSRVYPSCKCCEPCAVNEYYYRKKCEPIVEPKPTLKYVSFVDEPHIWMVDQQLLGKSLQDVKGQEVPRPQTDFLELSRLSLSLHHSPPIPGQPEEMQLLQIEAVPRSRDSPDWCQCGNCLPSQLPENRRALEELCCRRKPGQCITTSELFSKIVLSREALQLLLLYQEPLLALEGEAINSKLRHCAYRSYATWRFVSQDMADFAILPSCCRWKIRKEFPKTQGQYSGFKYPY
Put plainly: The compound was evaluated for antagonist activity against recombinant rat P2X purinoceptor 7 (P2X7).

In experiment [4] the target is P2X purinoceptor 2 (Rattus norvegicus). Put plainly: The compound was evaluated for antagonist activity against recombinant rat P2X purinoceptor 2 (P2X2) at 30 uM.
Experiment [5] is described as follows: The compound was evaluated for antagonist activity against recombinant rat P2X […] receptor 10 uM.
In experiment [6] the target is P2X purinoceptor 3 (Rattus norvegicus) (UniProt P49654). Description: The compound was evaluated for antagonist activity against recombinant rat P2X purinoceptor 3 (P2X3) at 10 uM,expressed in Xenopus oocytes.
A short description of experiment [7]: Dissociative constant against P2Y purinoceptor (P2Y) was reported; range 10-214.
Experiment [8] is described as follows: Dissociation constant at P2X purinoceptor 1 from guinea pig taenia coli.

Each structure is given as a SMILES string. Bounds are passed on as bounds.

Sequence of P2X purinoceptor 3 (Rattus norvegicus) (P49654 whole entry, looked up): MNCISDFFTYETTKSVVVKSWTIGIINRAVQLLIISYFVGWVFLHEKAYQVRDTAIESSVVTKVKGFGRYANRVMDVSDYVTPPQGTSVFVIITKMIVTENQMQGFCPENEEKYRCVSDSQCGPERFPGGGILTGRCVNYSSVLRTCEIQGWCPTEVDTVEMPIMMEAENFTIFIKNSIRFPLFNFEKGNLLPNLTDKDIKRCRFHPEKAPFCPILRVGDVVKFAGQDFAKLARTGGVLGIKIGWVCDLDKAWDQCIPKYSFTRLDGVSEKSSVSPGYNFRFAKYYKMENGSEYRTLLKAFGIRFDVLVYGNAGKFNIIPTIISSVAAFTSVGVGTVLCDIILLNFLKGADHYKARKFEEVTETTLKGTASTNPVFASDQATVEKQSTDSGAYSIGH

A word on the EC50: it is the concentration needed to bring the measured effect to its halfway point. For `Nc1ncnc2c1ncn2[C@@H]1O[C@H](CO[P@@](=O)(O)O[P@@](=O)(O)CP(=O)(O)O)[C@@H](O)[C@H]1O`, the EC50 in experiment [1] was 9.2 µM.
Regarding `CCOc1ccc(Nc2ccc([C+](c3ccc(N(CC)Cc4cccc(S(=O)(=O)[O-])c4)cc3C)c3ccc(N(CC)Cc4cccc(S(=O)(=O)O)c4)cc3C)cc2)cc1` [Brilliant Blue], the figures for the concentration giving a half-maximal response (EC50) in experiment [2] and in experiment [3] were 0.1 nM and 400 nM, respectively.
For orientation: IC50 means the concentration that gives 50% inhibition. Take `O=c1[nH]cnc2c1ncn2[C@@H]1O[C@H](COP(=O)(O)OP(=O)(O)OP(=O)(O)OP(=O)(O)OP(=O)(O)OC[C@H]2O[C@@H](n3cnc4c(=O)[nH]cnc43)[C@H](O)[C@@H]2O)[C@@H](O)[C@H]1O` [Ip5I]: the IC50 in experiment [4] was > 30 µM; in experiment [5], 2800 nM.
Turning to `CCCCCCSc1nc(N)c2ncn([C@@H]3O[C@H](COP(=O)(O)O)[C@@H](O)[C@H]3O)c2n1` [((2R,3S,4R,5R)-5-(6-amino-2-(hexylthio)-9H-purin-9-yl)-3,4-dihydroxytetrahydrofuran-2-yl)methyl dihydrogen phosphate], the concentration giving a half-maximal response (EC50) in experiment [6] was 350 nM.
Turning to `Nc1ccc(CCSc2nc(N)c3ncn([C@@H]4O[C@H](COP(=O)(O)OP(=O)(O)OP(=O)(O)O)[C@@H](O)[C@H]4O)c3n2)cc1` [PAPET-ATP], in experiment [6], the EC50 was found to be 17 nM.
The Kd is the equilibrium constant for the complex coming apart. For the molecule `O=S(=O)(O)c1cc(N=C=S)ccc1/C=C/c1ccc(N=C=S)cc1S(=O)(=O)O` [DIDS], the Kd in experiment [7] was 10 µM.
With `C=CS(=O)(=O)c1cccc(Nc2cc(S(=O)(=O)O)c(N)c3c2C(=O)c2ccccc2C3=O)c1` [Uniblue A], in experiment [8], the Kd is 800 nM.
